Assay results reported in patent US8765944B2, “Compounds for the treatment of hepatitis C” (priority 2010, dated 2014).

System: HCV pseudoparticles
Experiment: HCV pseudoparticle infection assay (luciferase reporter, Huh7 cells)
Assay type: cell-based, HCV (genotype 1b E1 and E2 envelope)
Conditions: Hepatitis C virus, genotype 1b, Huh-7, 48 h, HCV pseudoparticles (genotype 1b), luciferase activity 2 days after infection

Row | SMILES | EC50 (class) [nM] | EC50 [nM]
1 | O=C(NCC1(CN2CCCC2)CC1)c1ccc(Nc2nc(NC3(c4ccc(C(=O)NS(=O)(=O)C5CC5)cc4)CC3)nc(OCC(F)(F)F)n2)cc1 [Example 7001, N-(cyclopropylsulfonyl)-4-(1-(4-(4-((1-(pyrrolidin-1-ylmethyl)cyclopropyl)methylcarbamoyl)phenylamino)-6-(2,2,2-trifluoroethoxy)-1,3,5-triazin-2-ylamino)cyclopropyl)benzamide] | 0.5 to 100 | –
2 | O=C(NCC1(CN2CCCC2)CC1)c1ccc(Nc2nc(NC3(c4ccc(C(=O)NS(=O)(=O)C5CCC5)cc4)CC3)nc(OCC(F)(F)F)n2)cc1 [Example 7002] | 0.5 to 100 | –
3 | NC(=O)c1ccc(Nc2nc(N[C@]3(C(=O)NS(=O)(=O)C4CC4)C[C@H]3C3CC3)nc(OCC(F)(F)F)n2)cc1 [Example 8001] | 1000 to 5000 | –
4 | NC(=O)c1ccc(Nc2nc(NC3(C(=O)NS(=O)(=O)C4CC4)CC3)nc(OCC(F)(F)F)n2)cc1 [Example 8002] | 1000 to 5000 | –
5 | O=C(NS(=O)(=O)CCCN1CCCC1)c1ccc(Nc2nc(NC3(c4ccc(Cl)cc4)CC3)nc(N3CCCC3)n2)cc1 [Example 8003] | 1000 to 5000 | –
6 | CCC(=O)NS(=O)(=O)c1ccc(Nc2nc(NC3(c4ccc(Cl)cc4)CC3)nc(OCC(F)(F)F)n2)cc1 [Example 8004] | 1000 to 5000 | 2980
7 | O=C(NS(=O)(=O)c1ccc(Nc2nc(NC3(c4ccc(Cl)cc4)CC3)nc(OCC(F)(F)F)n2)cc1)c1ccccc1 [Example 8005] | 1000 to 5000 | –
8 | O=C(NS(=O)(=O)c1ccc(Nc2nc(NC3(c4ccc(Cl)cc4)CC3)nc(OCC(F)(F)F)n2)cc1)C1CC1 [Example 8006] | 1000 to 5000 | 2990
9 | CC(C)C(=O)NS(=O)(=O)c1ccc(Nc2nc(NC3(c4ccc(Cl)cc4)CC3)nc(OCC(F)(F)F)n2)cc1 [Example 8007] | 1000 to 5000 | 5400
10 | COCC1(S(=O)(=O)N(C)C(=O)c2ccc(N(C)c3nc(NC4(c5ccc(Cl)cc5)CC4)nc(OC)n3)cc2)CC1 [Example 8008] | 1000 to 5000 | –
11 | COCC1(S(=O)(=O)N(C)C(=O)c2ccc(Nc3nc(OC)nc(N(C)C4(c5ccc(Cl)cc5)CC4)n3)cc2)CC1 [Example 8009] | 1000 to 5000 | –
12 | COCC1(S(=O)(=O)NC(=O)c2ccc(N(C)c3nc(OCC(F)(F)F)nc(N(C)C4(c5ccc(Cl)cc5)CC4)n3)cc2)CC1 [Example 8010] | 1000 to 5000 | –
13 | O=C(NS(=O)(=O)c1ccccc1)c1ccc(Nc2nc(NC3(c4ccc(Cl)cc4)CC3)nc(OCC(F)(F)F)n2)cc1 [Example 8011] | 0.5 to 100 | –
14 | Cc1ccccc1S(=O)(=O)NC(=O)c1ccc(Nc2nc(NC3(c4ccc(Cl)cc4)CC3)nc(OCC(F)(F)F)n2)cc1 [Example 8012] | 0.5 to 100 | –
15 | O=C(NS(=O)(=O)c1ccc(F)cc1)c1ccc(Nc2nc(NC3(c4ccc(Cl)cc4)CC3)nc(OCC(F)(F)F)n2)cc1 [Example 8013] | 0.5 to 100 | –
16 | O=C(NS(=O)(=O)C1(Cc2ccccc2)CC1)c1ccc(Nc2nc(NC3(c4ccc(Cl)cc4)CC3)nc(OCC(F)(F)F)n2)cc1 [Example 8014] | 0.5 to 100 | 12.7
17 | O=C(NS(=O)(=O)C1(C(=O)Nc2ccccc2)CC1)c1ccc(Nc2nc(NC3(c4ccc(Cl)cc4)CC3)nc(OCC(F)(F)F)n2)cc1 [Example 8015] | 0.5 to 100 | –
18 | O=C(NS(=O)(=O)C1(Cc2ccccc2F)CC1)c1ccc(Nc2nc(NC3(c4ccc(Cl)cc4)CC3)nc(OCC(F)(F)F)n2)cc1 [Example 8016] | 0.5 to 100 | –
19 | O=C(NS(=O)(=O)C1CCCC1)c1ccc(Nc2nc(NC3(c4ccc(Cl)cc4)CC3)nc(OCC(F)(F)F)n2)cc1 [Example 8017] | 0.5 to 100 | –
20 | Cn1cnc(C[C@H](NC(=O)c2ccc(Nc3nc(NC4(c5ccc(Cl)cc5)CC4)nc(OCC(F)(F)F)n3)cc2)C(=O)NS(=O)(=O)C2CC2)c1 [Example 8018] | 0.5 to 100 | –
21 | Cn1cnc(C[C@H](NC(=O)c2ccc(Nc3nc(NC4(c5ccc(Cl)cc5)CC4)nc(OCC(F)(F)F)n3)cc2)C(=O)N[C@]2(C(=O)NS(=O)(=O)C3CC3)C[C@H]2C2CC2)c1 [Example 8019] | 0.5 to 100 | –
